Values of other authors in patent US6083980A, “Furanyl, tetracyclic triterpene derivatives with immunosuppressant activity” (Merck & Co., Inc., priority 1998, dated 2000).

Tested on: Kv 1.3 channels (CHO cells transfected with Kv 1.3 channels)
Conditions: stated for the reference blocker used to establish the efflux window

margatoxin (TIINVKCTSPKQCLPPCKAQFGQSAGAKCMNGKCKCYPH; UniProt P40755 1-39, looked up)
IC50: 0.1 nM
